For the assay, the system named is S. aureus. Briefly: MIC of tobramycin (previously determined). In kind it is cell-based. The following applies: Staphylococcus aureus.

As usually defined, the MIC is the smallest concentration in the dilution series that meets the test's criterion for growth inhibition. As for `NC[C@H]1O[C@H](O[C@H]2[C@H](O)[C@@H](O[C@H]3O[C@H](CO)[C@@H](O)[C@H](N)[C@H]3O)[C@H](N)C[C@@H]2N)[C@H](N)C[C@@H]1O` [tobramycin], the MIC worked out at 4 µg/mL.
